Source: ChEMBL document CHEMBL5532684, “Total Synthesis and Antibacterial Activity of Marine Tris-indole Alkaloid Tulongicin A” (2024)
≈ marks a conversion by molar mass, not a printed value.

What was measured:
Type in all cases: functional
Staphylococcus aureus [1] = test: Antibacterial activity against Staphylococcus aureus assessed as inhibition of bacterial growth
Staphylococcus aureus [2] = test: Antibacterial activity against methicillin resistant Staphylococcus aureus clinical isolate 5 assessed as inhibition of bacterial growth incubated overnight by CLSI protocol based assay; settings: read-out: MIC100
Escherichia coli [3] = test: Antibacterial activity against Escherichia coli ATCC 25922 assessed as inhibition of bacterial growth incubated overnight by CLSI protocol based assay; settings: read-out: MIC100
Staphylococcus aureus [4] = test: Antibacterial activity against methicillin resistant Staphylococcus aureus clinical isolate 1 assessed as inhibition of bacterial growth incubated overnight by CLSI protocol based assay; settings: read-out: MIC100
Staphylococcus aureus [5] = test: Antibacterial activity against methicillin resistant Staphylococcus aureus clinical isolate 2 assessed as inhibition of bacterial growth incubated overnight by CLSI protocol based assay; settings: read-out: MIC100
Staphylococcus aureus [6] = test: Bactericidal activity against methicillin susceptible Staphylococcus aureus clinical isolate 3 incubated overnight by CLSI protocol based assay; settings: read-out: MBC>99.9
Staphylococcus aureus [7] = test: Bactericidal activity against methicillin resistant Staphylococcus aureus clinical isolate 2 incubated overnight by CLSI protocol based assay; settings: read-out: MBC>99.9
Staphylococcus aureus [8] = test: Antibacterial activity against methicillin susceptible Staphylococcus aureus clinical isolate 4 assessed as inhibition of bacterial growth incubated overnight by CLSI protocol based assay; settings: read-out: MIC100
Staphylococcus aureus [9] = test: Antibacterial activity against methicillin susceptible Staphylococcus aureus clinical isolate 1 assessed as inhibition of bacterial growth incubated overnight by CLSI protocol based assay; settings: read-out: MIC100
Pseudomonas aeruginosa [10] = test: Bactericidal activity against Pseudomonas aeruginosa ATCC 27853 incubated overnight by CLSI protocol based assay; settings: read-out: MBC>99.9
Staphylococcus aureus [11] = test: Bactericidal activity against methicillin resistant Staphylococcus aureus clinical isolate 4 incubated overnight by CLSI protocol based assay; settings: read-out: MBC>99.9
Staphylococcus aureus [12] = test: Antibacterial activity against methicillin susceptible Staphylococcus aureus clinical isolate 5 assessed as inhibition of bacterial growth incubated overnight by CLSI protocol based assay; settings: read-out: MIC100
Escherichia coli [13] = test: Bactericidal activity against Escherichia coli ATCC 25922 incubated overnight by CLSI protocol based assay; settings: read-out: MBC>99.9
Staphylococcus aureus [14] = test: Bactericidal activity against methicillin susceptible Staphylococcus aureus clinical isolate 4 incubated overnight by CLSI protocol based assay; settings: read-out: MBC>99.9
Staphylococcus aureus [15] = test: Antibacterial activity against methicillin susceptible Staphylococcus aureus clinical isolate 3 assessed as inhibition of bacterial growth incubated overnight by CLSI protocol based assay; settings: read-out: MIC100
Staphylococcus aureus [16] = test: Bactericidal activity against methicillin susceptible Staphylococcus aureus clinical isolate 2 incubated overnight by CLSI protocol based assay; settings: read-out: MBC>99.9
Staphylococcus aureus [17] = test: Antibacterial activity against methicillin resistant Staphylococcus aureus clinical isolate 4 assessed as inhibition of bacterial growth incubated overnight by CLSI protocol based assay; settings: read-out: MIC100
Staphylococcus aureus [18] = test: Bactericidal activity against methicillin resistant Staphylococcus aureus clinical isolate 5 incubated overnight by CLSI protocol based assay; settings: read-out: MBC>99.9
Pseudomonas aeruginosa [19] = test: Antibacterial activity against Pseudomonas aeruginosa ATCC 27853 assessed as inhibition of bacterial growth incubated overnight by CLSI protocol based assay; settings: read-out: MIC100
Staphylococcus aureus [20] = test: Bactericidal activity against methicillin susceptible Staphylococcus aureus clinical isolate 5 incubated overnight by CLSI protocol based assay; settings: read-out: MBC>99.9
Staphylococcus aureus [21] = test: Bactericidal activity against methicillin resistant Staphylococcus aureus clinical isolate 3 incubated overnight by CLSI protocol based assay; settings: read-out: MBC>99.9
Staphylococcus aureus [22] = test: Antibacterial activity against Staphylococcus aureus ATCC 29213 assessed as inhibition of bacterial growth incubated overnight by CLSI protocol based assay; settings: read-out: MIC100
Staphylococcus aureus [23] = test: Antibacterial activity against methicillin susceptible Staphylococcus aureus clinical isolate 2 assessed as inhibition of bacterial growth incubated overnight by CLSI protocol based assay; settings: read-out: MIC100
Staphylococcus aureus [24] = test: Bactericidal activity against methicillin susceptible Staphylococcus aureus clinical isolate 1 incubated overnight by CLSI protocol based assay; settings: read-out: MBC>99.9
Staphylococcus aureus [25] = test: Bactericidal activity against Staphylococcus aureus ATCC 29213 incubated overnight by CLSI protocol based assay; settings: read-out: MBC>99.9
Staphylococcus aureus [26] = test: Antibacterial activity against methicillin resistant Staphylococcus aureus clinical isolate 3 assessed as inhibition of bacterial growth incubated overnight by CLSI protocol based assay; settings: read-out: MIC100
Staphylococcus aureus [27] = test: Bactericidal activity against methicillin resistant Staphylococcus aureus clinical isolate 1 incubated overnight by CLSI protocol based assay; settings: read-out: MBC>99.9

Compound | MIC (Staphylococcus aureus [2]) | MIC (Escherichia coli [3]) | MIC (Staphylococcus aureus [4]) | MIC (Staphylococcus aureus [5]) | MBC (Staphylococcus aureus [6]) | MBC (Staphylococcus aureus [7]) | MIC (Staphylococcus aureus [8]) | MIC (Staphylococcus aureus [9]) | MBC (Pseudomonas aeruginosa [10]) | MIC (Staphylococcus aureus [12]) | MBC (Escherichia coli [13]) | MBC (Staphylococcus aureus [14]) | MIC (Staphylococcus aureus [15]) | MBC (Staphylococcus aureus [16]) | MIC (Staphylococcus aureus [17]) | MBC (Staphylococcus aureus [18]) | MIC (Pseudomonas aeruginosa [19]) | MBC (Staphylococcus aureus [20]) | MBC (Staphylococcus aureus [21]) | MIC (Staphylococcus aureus [22]) | other results
Brc1ccc2c(C(C3=NC[C@H](c4c[nH]c5cc(Br)ccc45)N3)c3c[nH]c4cc(Br)ccc34)c[nH]c2c1 | 1 µg/mL (≈ 1.5 µM) | 16 µg/mL (≈ 24 µM) | 2 µg/mL (≈ 3 µM) | 1 µg/mL (≈ 1.5 µM) | 16 µg/mL (≈ 24 µM) | 16 µg/mL (≈ 24 µM) | 2 µg/mL (≈ 3 µM) | 1 µg/mL (≈ 1.5 µM) | > 128 µg/mL | 2 µg/mL (≈ 3 µM) | 32 µg/mL (≈ 48 µM) | 128 µg/mL (≈ 192 µM) | 2 µg/mL (≈ 3 µM) | 2 µg/mL (≈ 3 µM) | 2 µg/mL (≈ 3 µM) | 2 µg/mL (≈ 3 µM) | > 128 µg/mL | 64 µg/mL (≈ 96.1 µM) | 2 µg/mL (≈ 3 µM) | 2 µg/mL (≈ 3 µM) | MIC (Staphylococcus aureus [1]): 1 µg/mL (≈ 1.5 µM); MBC (Staphylococcus aureus [11]): 16 µg/mL (≈ 24 µM); MIC (Staphylococcus aureus [23]): 2 µg/mL (≈ 3 µM); MBC (Staphylococcus aureus [24]): 16 µg/mL (≈ 24 µM); MBC (Staphylococcus aureus [25]): 4 µg/mL (≈ 6 µM); MIC (Staphylococcus aureus [26]): 2 µg/mL (≈ 3 µM); MBC (Staphylococcus aureus [27]): 128 µg/mL (≈ 192 µM)
O=C(C1=NC[C@H](c2c[nH]c3cc(Br)ccc23)N1)c1c[nH]c2cc(Br)ccc12 (racemic) | 2 µg/mL (≈ 4.11 µM) | > 128 µg/mL | 2 µg/mL (≈ 4.11 µM) | 2 µg/mL (≈ 4.11 µM) | > 128 µg/mL | 16 µg/mL (≈ 32.9 µM) | 2 µg/mL (≈ 4.11 µM) | 2 µg/mL (≈ 4.11 µM) | > 128 µg/mL | 2 µg/mL (≈ 4.11 µM) | > 128 µg/mL | > 128 µg/mL | 2 µg/mL (≈ 4.11 µM) | > 128 µg/mL | 2 µg/mL (≈ 4.11 µM) | 64 µg/mL (≈ 132 µM) | > 128 µg/mL | 128 µg/mL (≈ 263 µM) | 4 µg/mL (≈ 8.23 µM) | 2 µg/mL (≈ 4.11 µM) | MIC (Staphylococcus aureus [23]): 2 µg/mL (≈ 4.11 µM); MBC (Staphylococcus aureus [24]): 32 µg/mL (≈ 65.8 µM); MBC (Staphylococcus aureus [25]): 8 µg/mL (≈ 16.5 µM); MIC (Staphylococcus aureus [26]): 2 µg/mL (≈ 4.11 µM); MBC (Staphylococcus aureus [27]): > 128 µg/mL
